Assay results as given in patent US4822800A (Ortho Pharmaceutical Corporation, priority 1986, dated 1989).
“Also recorded” adds a separate entry of the source. Like-named read-outs stand apart in the source and are kept apart here.

Legend:
adult mongrel dogs [1] = experiment: renal vasodilating activity in anesthetized dogs; type: in vivo, dog (adult mongrel); conditions: for change in vivo at 13.9 mg/kg / change in vivo at up to 13.9 mg/kg / change in vivo at 1.2 mg/kg: Canis lupus familiaris, renal vasodilator, relative to controls; for change in vivo at 13.9 mg/kg / change in vivo at up to 13.9 mg/kg: dose 13.9 mg/kg intravenous; for renal vasodilating activity (in words): summary of Table 4; for change in vivo at 1.2 mg/kg: dose 1.2 mg/kg intravenous
Method in brief: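 In anesthetized mongrel dogs, compounds infused IV at rising (usually three-fold) rates, 5 min per dose, after a dopamine check (3 μg/kg/min, 10 min). Renal artery flow measured electromagnetically, pressure via carotid cannula; values are maximal % change from pre-drug control in RBF, RVR (MABP/flow), MABP and HR.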

adult mongrel dogs [2] = experiment: acute in vivo cardiotonic activity in anesthetized dogs; parameters: species or system dog (adult mongrel); conditions: for change in vivo at 0.875 mg/kg / change in vivo at 0.025 mg/kg / change in vivo at 0.375 mg/kg: Canis lupus familiaris, cardiotonic, relative to controls; for change in vivo at 0.875 mg/kg: dose 0.875 mg/kg intravenous; for cardiotonic activity (in words): summary of Table 4; for change in vivo at 0.025 mg/kg: dose 0.025 mg/kg intravenous; for change in vivo at 0.375 mg/kg: dose 0.375 mg/kg intravenous
Method in brief: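 Pentobarbital-anaesthetised, artificially respired mongrel dogs received compound by intravenous infusion or oral bolus. Recordings covered femoral arterial pressure, heart rate, LV dP/dt max (Millar catheter), aortic flow cardiac output, right-ventricular contractile force (strain gauge) and lead II ECG. Dopamine 10 μg/kg/min checked responsiveness; dose-related changes were expressed as % of pretreatment values and rated.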

[3] = target: T1, Phosphodiesterase fraction III (Canis lupus familiaris, UniProt A0A8I3NYE0); experiment: inhibition of phosphodiesterase fraction III activity; type: biochemical, canine (heart); conditions: for IC50: cyclic AMP 0.10-1.0 uM, pH 7.4, canine heart enzyme; for phosphodiesterase fraction III inhibition (in words): summary of Table 5
T1 construct: isolated as an isozyme from the crude canine heart homogenate; from tissue; host or cells: canine heart (crude homogenate, ion exchange chromatography, third and last PDE peak)
T1 sequence (A0A8I3NYE0 1-1135): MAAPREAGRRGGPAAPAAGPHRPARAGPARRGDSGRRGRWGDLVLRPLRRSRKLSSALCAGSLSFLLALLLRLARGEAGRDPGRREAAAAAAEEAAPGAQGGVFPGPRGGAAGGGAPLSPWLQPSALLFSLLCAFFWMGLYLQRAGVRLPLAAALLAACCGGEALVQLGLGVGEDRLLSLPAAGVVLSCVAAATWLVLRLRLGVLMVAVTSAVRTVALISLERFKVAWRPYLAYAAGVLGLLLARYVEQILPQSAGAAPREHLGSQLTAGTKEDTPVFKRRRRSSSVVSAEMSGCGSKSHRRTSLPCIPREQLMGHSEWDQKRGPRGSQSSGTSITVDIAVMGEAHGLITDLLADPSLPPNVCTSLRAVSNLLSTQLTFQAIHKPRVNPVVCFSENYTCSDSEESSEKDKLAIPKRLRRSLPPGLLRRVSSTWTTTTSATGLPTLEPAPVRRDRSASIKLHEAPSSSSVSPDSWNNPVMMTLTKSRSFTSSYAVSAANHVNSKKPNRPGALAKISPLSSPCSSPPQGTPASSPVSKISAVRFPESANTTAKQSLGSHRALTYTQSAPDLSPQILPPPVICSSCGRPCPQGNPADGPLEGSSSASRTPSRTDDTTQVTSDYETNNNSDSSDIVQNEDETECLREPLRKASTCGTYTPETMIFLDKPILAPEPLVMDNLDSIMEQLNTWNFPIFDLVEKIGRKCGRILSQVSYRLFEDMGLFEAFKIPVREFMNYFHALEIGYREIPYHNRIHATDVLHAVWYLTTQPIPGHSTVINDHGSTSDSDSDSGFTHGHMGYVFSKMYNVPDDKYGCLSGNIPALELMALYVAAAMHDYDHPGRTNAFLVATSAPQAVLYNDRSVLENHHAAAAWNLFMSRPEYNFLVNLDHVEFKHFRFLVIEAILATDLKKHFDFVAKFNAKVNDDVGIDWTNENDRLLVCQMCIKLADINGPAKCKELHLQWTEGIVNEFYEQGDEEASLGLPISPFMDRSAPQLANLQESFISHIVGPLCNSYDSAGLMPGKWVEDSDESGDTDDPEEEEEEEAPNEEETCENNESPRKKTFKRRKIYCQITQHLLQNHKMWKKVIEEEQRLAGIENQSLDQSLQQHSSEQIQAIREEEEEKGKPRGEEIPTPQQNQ

[4] = read-out: MABP (mean arterial blood pressure)
[5] = read-out: RBF (renal blood flow)
[6] = read-out: RVR (renal vascular resistance)
[7] = read-out: dP/dt (maximum change left ventricular pressure with time)

| IC50 [3] [µM] | Compound | change in vivo at 13.9 mg/kg (adult mongrel dogs [1]; [5]) [%] | change in vivo at up to 13.9 mg/kg (adult mongrel dogs [1]; [6]) [%] | renal vasodilating activity (in words) (adult mongrel dogs [1]) | cardiotonic activity (in words) (adult mongrel dogs [2]) | phosphodiesterase fraction III inhibition (in words) [3] | also measured |
| --- | --- | --- | --- | --- | --- | --- | --- |
| 40 | COC(=O)CCc1c(O)nc(C)c2cc(OC)c(OC)cc12 [Compound B, 4-(β-Carbomethoxyethyl)-3-hydroxy-6,7-dimethoxy-1-methylisoquinoline] | 15 | -38 | renal vasodilating properties | cardiotonic properties | inhibit phosphodiesterase fraction III activity; also recorded: phosphodiesterase fraction III inhibiting properties | change in vivo at 13.9 mg/kg (adult mongrel dogs [1]; read-out: HR (heart rate)): 12%; change in vivo at 13.9 mg/kg (adult mongrel dogs [1]; [4]): -28%; change in vivo at 0.875 mg/kg (adult mongrel dogs [2]; read-out: CF (cardiac force)): 140%; change in vivo at 0.875 mg/kg (adult mongrel dogs [2]; read-out: HR (heart rate)): 34%; change in vivo at 0.875 mg/kg (adult mongrel dogs [2]; [4]): -12%; change in vivo at 0.875 mg/kg (adult mongrel dogs [2]; [7]): 78% |
| 2.4 | CCc1c(O)nc(C)c2cc(OC)c(OC)cc12 [Compound Z, 4-ethyl-3-hydroxy-6,7-dimethoxy-1-methylisoquinoline] |  |  | renal vasodilating properties | cardiotonic properties | inhibit phosphodiesterase fraction III activity; also recorded: phosphodiesterase fraction III inhibiting properties | change in vivo at 1.2 mg/kg (adult mongrel dogs [1]; [5]): 10%; change in vivo at 1.2 mg/kg (adult mongrel dogs [1]; [6]): -38%; change in vivo at 0.025 mg/kg (adult mongrel dogs [2]; read-out: CF (cardiac force)): 143%; change in vivo at 0.025 mg/kg (adult mongrel dogs [2]; read-out: HR (heart rate)): 13%; change in vivo at 0.025 mg/kg (adult mongrel dogs [2]; [4]): -12%; change in vivo at 0.025 mg/kg (adult mongrel dogs [2]; [7]): 98% |
| 5 | CCCc1c(O)nc(C)c2cc(OC)c(OC)cc12 [Y] | 10 | -13 | renal vasodilating properties | cardiotonic properties | inhibit phosphodiesterase fraction III activity; also recorded: phosphodiesterase fraction III inhibiting properties | change in vivo at 0.375 mg/kg (adult mongrel dogs [2]; read-out: CF (cardiac force)): 84%; change in vivo at 0.375 mg/kg (adult mongrel dogs [2]; read-out: HR (heart rate)): 12%; change in vivo at 0.375 mg/kg (adult mongrel dogs [2]; [4]): -16%; change in vivo at 0.375 mg/kg (adult mongrel dogs [2]; [7]): 44% |
